Experimental data published in patent US10046150B2, “Lysine delivery systems for blood coagulation” (Park City Bio, LLC, priority 2013, dated 2018).

Test system: nose bleed
Assay: treatment of a nose bleed with a nose plug (tissue, gauze or absorbent body) carrying lysine powder
Type: in vivo
Protocol: As a control, regular tissue and regular gauze were used to treat a nose bleed by rolling or otherwise fashioning a nose plug from the materials, and no lysine was added. The tissues and gauze appear to absorb the blood, but the blood continues to flow. In some instances, the blood flow can be significant and require a large number of sequential tissues or gauze. Nose bleeds treated with tissues can last 10 minutes or more up to an hour or longer when the bleed is significant. In some instances a nose bleed can be from both nostrils and both nostrils have to be plugged with a nose plug.
The nose bleed often stops within 1 minute when the tissue includes lysine, compared a long period when only tissues are used. A significant bleed was stopped within 5 minutes when lysine was included in the gauze. […] Available lysine was present after the nose bleed was treated to stop blood flow. […] Accordingly, substantially less than 500 mg lysine (E.g., 5 mg) is needed to stop bleeding in a short time. The device including the tissue and the lysine powder is able to be withdrawn with the blood no longer flowing through the nose.
Additionally, there was still excess powder. The gauze was rolled up with the lysine powder at one end, and the lysine powder was inserted into the nose, then the gauze was released and allowed to expand and plug the nose.
FIG. 12—illustrate an embodiment of a method of making a blood coagulating device with a lysine reservoir. […] The gauze is not hemostatic (Walgreens Premium Rolled Gauze—for secure dressings and light absorption. The device is made by: forming an absorptive body to a size and shape of a sheet; placing lysine powder on a surface of the sheet, where the lysine may be anywhere, but shown to be placed along a center crease. Adhesive is used to stick the surface to itself when the substrate is folded at the center crease so that the folded body has the lysine at the fold. The additional adhesive is put on the surface that is showing, and the sheet is rolled into a cylindrical device. The device has the lysine in a multi-layered chamber with the lysine located at one end. […] The marked end of the controls is not inserted in the nose.

NCCCC[C@H](N)C(=O)O [lysine]
time until the nose bleed stopped (hemostat gauze (regenerated etherized and oxidized natural fiber cellulose) having about 250 mg lysine powder, slower bleed): within a minute | time until the gauze could be removed (hemostat gauze having about 250 mg lysine powder, slower bleed): just over a minute | effect on blood flow / bleeding (in words) (nose bleed): promotes clotting | blood absorbed by the device (in words) (nose bleed, compared with control without lysine where stated): didn't absorb much blood
